Reference: US8686010B2, “Aryl- or heteroaryl-sulfonyl compounds as acid secretion inhibitors” (Takeda Pharmaceutical Company Limited, priority 2006, dated 2014)
Structures can show the parent of a compound that is named as a salt.

What follows are compounds tested against T1, H+,K+-ATPase (Sus scrofa, UniProt P19156) (assay: Proton potassium-adenosine triphosphatase (H+,K+-ATPase) inhibitory activity test). Conditions: gastric mucous membrane microsomal fraction from swine stomach; pH 6.5, 37° C., malachite green colorimetry at 610 nm; read-out: IC50 (50% inhibitory concentration of proton, potassium-adenosine triphosphatase).
T1 construct: The obtained microsomal fraction was used as a proton, potassium—adenosine triphosphatase standard product; from tissue; host or cells: swine stomach, gastric mucous membrane microsomal fraction
T1 sequence (P19156 2-1034 limits assumed): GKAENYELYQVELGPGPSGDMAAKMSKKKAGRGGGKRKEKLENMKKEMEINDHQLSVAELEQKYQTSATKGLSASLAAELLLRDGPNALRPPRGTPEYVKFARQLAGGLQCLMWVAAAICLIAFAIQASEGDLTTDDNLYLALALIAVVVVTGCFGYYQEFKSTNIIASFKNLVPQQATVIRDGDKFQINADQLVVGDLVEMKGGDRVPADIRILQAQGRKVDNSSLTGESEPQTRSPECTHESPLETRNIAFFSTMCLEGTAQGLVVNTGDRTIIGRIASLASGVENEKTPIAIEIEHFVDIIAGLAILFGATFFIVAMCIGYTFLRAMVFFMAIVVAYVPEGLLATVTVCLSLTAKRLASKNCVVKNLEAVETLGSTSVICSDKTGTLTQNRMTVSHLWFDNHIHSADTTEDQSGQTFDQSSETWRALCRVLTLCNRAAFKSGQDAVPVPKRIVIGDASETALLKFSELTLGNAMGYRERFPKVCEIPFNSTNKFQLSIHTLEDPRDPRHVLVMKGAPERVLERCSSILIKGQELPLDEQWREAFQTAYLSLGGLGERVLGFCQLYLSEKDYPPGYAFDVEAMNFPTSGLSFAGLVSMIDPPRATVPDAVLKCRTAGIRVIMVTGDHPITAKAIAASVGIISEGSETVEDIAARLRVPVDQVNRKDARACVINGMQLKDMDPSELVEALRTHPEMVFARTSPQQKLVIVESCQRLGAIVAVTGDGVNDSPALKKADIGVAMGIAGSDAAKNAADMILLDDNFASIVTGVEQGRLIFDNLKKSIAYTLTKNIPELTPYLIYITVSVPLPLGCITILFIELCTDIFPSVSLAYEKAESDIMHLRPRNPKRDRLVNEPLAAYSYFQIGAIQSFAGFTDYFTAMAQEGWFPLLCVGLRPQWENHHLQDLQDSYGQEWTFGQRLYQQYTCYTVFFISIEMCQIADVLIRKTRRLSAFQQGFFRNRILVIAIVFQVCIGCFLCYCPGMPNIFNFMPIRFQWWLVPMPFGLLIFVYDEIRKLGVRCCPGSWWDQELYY
T1 sequence (P18434 whole entry partner): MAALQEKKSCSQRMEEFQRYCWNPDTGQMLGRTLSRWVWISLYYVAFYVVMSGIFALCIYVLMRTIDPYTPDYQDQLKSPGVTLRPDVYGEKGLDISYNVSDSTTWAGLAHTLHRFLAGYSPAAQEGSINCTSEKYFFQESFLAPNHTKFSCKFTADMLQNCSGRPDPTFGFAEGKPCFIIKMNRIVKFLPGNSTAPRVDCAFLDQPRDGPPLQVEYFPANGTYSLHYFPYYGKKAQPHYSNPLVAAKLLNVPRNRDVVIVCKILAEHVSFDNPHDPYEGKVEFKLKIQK
Format: biochemical
Experimental: Proton Potassium—Adenosine Triphosphatase (H^+,K^+-ATPase) Inhibitory Activity Test
According to the method [Biochim. Biophys. Acta, 728, 31 (1983)] of Wallmark et al., a gastric mucous membrane microsomal fraction was prepared from the stomach of swine. First, the stomach was removed, washed with tap water, immersed in 3 mol/L brine, and the surface of the mucous membrane was wiped with a paper towel. The gastric mucous membrane was detached, chopped, and homogenized in a 0.25 mol/L saccharose solution (pH 6.8) containing 1 mmol/L EDTA and 10 mmol/L tris-hydrochloric acid using polytron (Kinematica). The obtained homogenate was centrifuged at 20,000×g for 30 min and the supernatant was centrifuged at 100,000×g for 90 min. The precipitate was suspended in 0.25 mol/L saccharose solution, superimposed on a 0.25 mol/L saccharose solution containing 7.5% Ficoll, and centrifuged at 100,000×g for 5 hr. The fraction containing the interface between the both layers was recovered, and centrifugally washed with 0.25 mol/L saccharose solution.
The obtained microsomal fraction was used as a proton, potassium—adenosine triphosphatase standard product.
To 40 μL of a 50 mmol/L HEPES-tris buffer (5 mmol/L magnesium chloride, 10 mmol/L potassium chloride, 10 μmol/L valinomycin, pH=6.5) containing 2.5 μg/mL (based on the protein concentration) of the enzyme standard product was added a test compound (5 μL) dissolved in a 10% aqueous dimethyl sulfoxide solution, and the mixture was incubated at 37° C. for 30 min. The enzyme reaction was started by adding 5 μL of a 2 mmol/L adenosine triphosphate tris salt solution (50 mmol/L HEPES-tris buffer (5 mmol/L magnesium chloride, pH 6.5)). The enzyme reaction was performed at 37° C. for 20 min, and 15 μL of a malachite green solution (0.12% malachite green solution in sulfuric acid (2.5 mol/L), 7.5% ammonium molybdate and 11% Tween 20 were mixed at a ratio of 100:25:2) was added to quench the reaction. After allowing to stand at room temperature for 15 min, the resulting reaction product of inorganic phosphorus with malachite green was colorimetrically determined at a wavelength of 610 nm. In addition, the amount of the inorganic phosphoric acid in the reaction solution free of potassium chloride was measured in the same manner, which was subtracted from the inorganic phosphoric acid amount in the presence of potassium chloride to determine the proton, potassium—adenosine triphosphatase activity. The inhibitory rate (%) was determined from the activity value of the control activity value and the activity values of various concentrations of the test compound, and the 50% inhibitory concentration (IC50) of the proton, potassium-adenosine triphosphatase was determined.

**Q.** How did the IC50 turn out when `CNCc1cn(-c2ccccc2)c(S(=O)(=O)c2ccccc2)c1C` [Example 1, N-methyl-1-[4-methyl-1-phenyl-5-(phenylsulfonyl)-1H-pyrrol-3-yl]methanamine hydrochloride] was run?
**A.** 180 nM

**Q.** With `Cc1ccc(S(=O)(=O)n2cc(CN(C)C)nc2-c2ccccc2)cc1` [Example 5, N,N-dimethyl-1-{1-[(4-methylphenyl)sulfonyl]-2-phenyl-1H-imidazol-4-yl}methanamine 0.5 oxalate] as the compound, how does the IC50 read?
**A.** 160 nM

**Q.** How did the IC50 turn out when `CNCc1cn(S(=O)(=O)c2cccc(OC)c2)c(-c2ccccc2)n1` [Example 7, 1-{1-[(3-methoxyphenyl)sulfonyl]-2-phenyl-1H-imidazol-4-yl}-N-methylmethanamine fumarate] was run?
**A.** 30 nM

**Q.** For `CNCc1nc(-c2ccccc2)c(S(=O)(=O)c2ccccc2)s1` [Example 12, N-methyl-1-[4-phenyl-5-(phenylsulfonyl)-1,3-thiazol-2-yl]methanamine hydrochloride], which IC50 is on record?
**A.** 170 nM
